The results in this text go back to PubChem BioAssay AID330 (DTP/NCI, 2004).

The structures appear in SMILES notation. Values joined by “and” are separate entries in the source; they are usually repeats but may differ in a detail not shown here. Equal entries are not always repeated. Toxic doses and inconclusive results are not listed.

This test relates to P388 leukemia ip, CD2F1 mice, survival T/C. Briefly: NCI In Vivo Anticancer Drug Screen. Data for tumor model P388 Leukemia (intraperitoneal) in CD2F1 (CDF1) mice. Particulars: endpoint: median survival time, higher = longer survival. A digest of the protocol:
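Mice carrying the transplanted tumor received test compound or vehicle. Survival was recorded in each group, and the value is the treated-group measurement divided by that of the vehicle-treated control group.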

Setting [1] is: dose: 6.25 mg/kg/injection, schedule: Q01DX009 (ip), vehicle: saline with Tween-80.
Setting [2] is: dose: 50.0 mg/kg/injection, schedule: Q01DX009 (ip), vehicle: saline.
[3] abbreviates: dose: 100.0 mg/kg/injection, schedule: Q01DX009 (ip), vehicle: saline.
Where [4] appears, read: dose: 200.0 mg/kg/injection, schedule: Q01DX009 (ip), vehicle: saline.

As to `CC1=CC(OC2CCCCC2)OC1=O` (centres undefined), the T/C (dose: 47.5 mg/kg/injection, schedule: Q01DX005 (ip), vehicle: Klucel (hydroxypropylcellulose) (HPC)) was 104 % of control; the T/C (dose: 95.0 mg/kg/injection, schedule: Q01DX005 (ip), vehicle: Klucel (hydroxypropylcellulose) (HPC)) is 101 % of control; the T/C (dose: 190.0 mg/kg/injection, schedule: Q01DX005 (ip), vehicle: Klucel (hydroxypropylcellulose) (HPC)) was 104 % of control.

Regarding `Cc1c(C#N)c(=O)[nH]c2ccc([N+](=O)[O-])cc12`, the T/C runs as follows: (dose: 60.0 mg/kg/injection, schedule: Q01DX005 (ip), vehicle: saline with Tween-80) 94 % of control; (dose: 120.0 mg/kg/injection, schedule: Q01DX005 (ip), vehicle: saline with Tween-80) 93 % of control; (dose: 240.0 mg/kg/injection, schedule: Q01DX005 (ip), vehicle: saline with Tween-80) 100 % of control.

In the case of `NC(CSC(c1ccccc1)(c1ccccc1)c1ccccc1)C(=O)O` (centres undefined), the T/C is, setting by setting: (dose: 1.56 mg/kg/injection, schedule: Q01DX009 (ip), vehicle: saline with Tween-80) 108 % of control; (dose: 3.12 mg/kg/injection, schedule: Q01DX009 (ip), vehicle: Klucel (hydroxypropylcellulose) (HPC)) 86 % of control; (dose: 6.25 mg/kg/injection, schedule: Q01DX009 (ip), vehicle: Klucel (hydroxypropylcellulose) (HPC)) 121 % of control and 90 % of control; under setting [1], 119 % of control; (dose: 6.25 mg/kg/injection, schedule: Q01DX009 (ip), vehicle: water) 110 % of control and 118 % of control; (dose: 12.5 mg/kg/injection, schedule: Q01DX009 (ip), vehicle: Klucel (hydroxypropylcellulose) (HPC)) 92 % of control. The T/C runs as follows: (dose: 12.5 mg/kg/injection, schedule: Q01DX009 (ip), vehicle: water) 118 % of control; (dose: 20.0 mg/kg/injection, schedule: Q01DX001 (ip), vehicle: water) 104 % of control; (dose: 25.0 mg/kg/injection, schedule: Q01DX009 (ip), vehicle: Klucel (hydroxypropylcellulose) (HPC)) 163 % of control; (dose: 25.0 mg/kg/injection, schedule: Q01DX009 (ip), vehicle: water) 168 % of control; (dose: 25.0 mg/kg/injection, schedule: Q01DX009 (oral), vehicle: saline with Tween-80) 123 % of control; (dose: 40.0 mg/kg/injection, schedule: Q01DX001 (ip), vehicle: water) 111 % of control. The T/C was 168 % of control and 186 % of control (dose: 40.0 mg/kg/injection, schedule: Q01DX009 (ip), vehicle: water); 192 % of control (dose: 50.0 mg/kg/injection, schedule: Q01DX009 (ip), vehicle: Klucel (hydroxypropylcellulose) (HPC)); 180 % of control [middle of 5 runs] (dose: 50.0 mg/kg/injection, schedule: Q01DX009 (ip), vehicle: saline with Tween-80); 159 % of control and 163 % of control and 183 % of control (dose: 50.0 mg/kg/injection, schedule: Q01DX009 (ip), vehicle: water); 119 % of control (dose: 50.0 mg/kg/injection, schedule: Q01DX009 (oral), vehicle: saline with Tween-80); 225 % of control (dose: 66.0 mg/kg/injection, schedule: Q04DX003 (ip), vehicle: Klucel (hydroxypropylcellulose) (HPC)). The T/C is, setting by setting: (dose: 80.0 mg/kg/injection, schedule: Q01DX001 (ip), vehicle: water) 111 % of control; (dose: 100.0 mg/kg/injection, schedule: Q01DX009 (ip), vehicle: Klucel (hydroxypropylcellulose) (HPC)) 100 % of control; (dose: 100.0 mg/kg/injection, schedule: Q01DX009 (oral), vehicle: saline with Tween-80) 153 % of control; (dose: 100.0 mg/kg/injection, schedule: Q04DX003 (ip), vehicle: Klucel (hydroxypropylcellulose) (HPC)) 175 % of control; (dose: 200.0 mg/kg/injection, schedule: Q01DX009 (ip), vehicle: saline with Tween-80) 167 % of control and 175 % of control.

Turning to `CC(=O)c1ccc2c(=O)c(C(=O)O)c[nH]c2c1`, the T/C by setting is: (dose: 12.5 mg/kg/injection, schedule: Q01DX009 (ip), vehicle: saline with Tween-80) 87 % of control; (dose: 25.0 mg/kg/injection, schedule: Q01DX009 (ip), vehicle: saline with Tween-80) 91 % of control; under setting [2], 108 % of control; under setting [3], 98 % of control; under setting [4], 104 % of control.

Turning to `CC1(C)COC(c2ccc(Br)cc2)=N1`, the T/C was 101 % of control (dose: 25.0 mg/kg/injection, schedule: Q01DX009 (ip), vehicle: other); 97 % of control (dose: 50.0 mg/kg/injection, schedule: Q01DX009 (ip), vehicle: other); 102 % of control (dose: 100.0 mg/kg/injection, schedule: Q01DX009 (ip), vehicle: other); 104 % of control (dose: 200.0 mg/kg/injection, schedule: Q01DX009 (ip), vehicle: other).

Regarding `N=C(N)c1ccc(-c2ccc(-c3ccc(C(=N)N)cc3)o2)cc1`, the T/C reads like this: (dose: 3.13 mg/kg/injection, schedule: Q01DX009 (ip), vehicle: saline with Tween-80) 94 % of control; under setting [1], 102 % of control.

Consider `COC1OCN(C2CCCCC2)CC1(C)C` (centres undefined), for which the T/C by setting is: (dose: 17.5 mg/kg/injection, schedule: Q01DX009 (ip), vehicle: saline with Tween-80) 100 % of control; (dose: 35.0 mg/kg/injection, schedule: Q01DX009 (ip), vehicle: saline with Tween-80) 104 % of control; (dose: 70.0 mg/kg/injection, schedule: Q01DX009 (ip), vehicle: saline with Tween-80) 117 % of control.

For `CC(=O)N(C)c1ccc(N=Nc2ccc3ncccc3c2)cc1`, the T/C (dose: 12.5 mg/kg/injection, schedule: Q01DX005 (ip), vehicle: saline with Tween-80) is 102 % of control and the T/C (dose: 25.0 mg/kg/injection, schedule: Q01DX005 (ip), vehicle: saline with Tween-80) was 100 % of control.

`O=C1OCC2=Nc3cccc4cccc(c34)N12`: the T/C by setting is: (dose: 50.0 mg/kg/injection, schedule: Q01DX005 (ip), vehicle: Klucel (hydroxypropylcellulose) (HPC)) 101 % of control; (dose: 100.0 mg/kg/injection, schedule: Q01DX005 (ip), vehicle: Klucel (hydroxypropylcellulose) (HPC)) 94 % of control; (dose: 200.0 mg/kg/injection, schedule: Q01DX005 (ip), vehicle: Klucel (hydroxypropylcellulose) (HPC)) 98 % of control.

Consider `Clc1c2ccccc2cc2cccnc12`, for which the T/C under setting [2] is 101 % of control; the T/C under setting [3] is 100 % of control; the T/C under setting [4] is 102 % of control and 86 % of control.

As to `CC1(C)CN(Cc2ccccc2)CCOC1N1CCOCC1` (centres undefined), the T/C is, setting by setting: (dose: 50.0 mg/kg/injection, schedule: Q01DX005 (ip), vehicle: saline with Tween-80) 93 % of control; (dose: 100.0 mg/kg/injection, schedule: Q01DX005 (ip), vehicle: saline with Tween-80) 101 % of control; (dose: 200.0 mg/kg/injection, schedule: Q01DX005 (ip), vehicle: saline with Tween-80) 115 % of control.
